Measurements published in patent US4372973A, “16-Amino-postaglandin derivatives, their acid addition salts, and a process for the preparation thereof” (priority 1981, dated 1983).
“Also recorded” adds a separate entry of the source.

Columns and labels:
[1] = test system: 15-hydroxy-prostaglandin-dehydrogenase; assay: 15-Hydroxy-prostaglandin-dehydrogenase substrate test; type: in vitro ADME; parameters: key: substrate; O: no substrate of the enzyme; conditions: In this test the concentration of the compounds 1.10^-4 mole/lit.
Protocol: Beyond these tests it was determined according to P. Tolnay et al. (Acta Biochim. Biophys. Acad. Sci. Hung. 14, 67 (1979)) whether the compounds of the invention are substrates of the 15-hydroxy-prostaglandin-dehydrogenaseenzyme.

guinea pig trachea = assay: Smooth muscle contraction, trachea; type: cell-based; parameters: key: +: contraction on trachea; O: inactive on trachea; conditions: 1 μg/ml
Description: (§1) The compounds prepared according to the process of the invention were submitted to several tests developed for detecting the effects of 9α, 11α, 15(S)-trihydroxy-5-cis, 13-trans-prostadienoic acid (PGF2α). From the organs containing smooth muscle guinea pig trachea, ileum and rat uterine horn were used in the trials. The organs were suspended in isotonic salt medium and the potency was registered on the basis of isotonic contractions (Pharmacological Experiments on Isolated Preparations, Ed. W. L. M. Perry and E. S. Livingstone, Edinburgh and London (1970)). The effect exerted on the aggregation of human blood platelets, induced by 5.10^-5 mole/lit. of adenosine-5'-phosphate, was measured in a CHRONO LOG Aggregometer according to A. V. R. Born (J. Physiol. 162, 67 (1962)).

rat uterine horn = assay: Smooth muscle contraction, uterus; type: cell-based; conditions: PGF2α = 1.00
Description: as §1

guinea pig ileum = assay: Smooth muscle contraction, ileum; type: cell-based; conditions: PGF2α = 1.00
Description: as §1

human blood platelets = assay: Inhibition of blood platelet aggregation; type: cell-based; conditions: 100 μg/ml, induced by 5.10^-5 mole/lit. of adenosine-5'-phosphate
Description: as §1

[2] = test system: white mice on the 17th or 18th day of pregnancy; assay: Abortive effect in pregnant mice; type: in vivo; conditions: s.c.; for ED50: Mus musculus, sc, 48 h, body weight, white mice, 17th or 18th day of pregnancy, 5 animals per group
Protocol: (§2) The favorable biological properties of the new compounds of the invention are clearly manifested in their abortive effect. The test materials were administered subcutaneously to white mice on the 17th or 18th day of pregnancy, then the deliveries were followed up in the subsequent 48 hours, and the overall status of the excised uterus (scars, embrional residual debris) was evaluated (M. J. R. Harper et al.: Advances in Biosciences 9, 789 (1973)). In groups containing 5 animals the dose effect relationships of PGF2α, its methyl ester, as well as of the new 16-amino-prostaglandin derivatives were determined.

[3] = Laxative effect (diarrhea) at abortive doses; type: in vivo, white mice
Protocol: as §2

Structure (SMILES) | 15-Hydroxy-prostaglandin-dehydrogenase (substrate or no substrate) [1] | diarrhea ([3]; even at the tenfold of the abortive dose) | laxative effect ([3]; at abortive doses) | laxative effect ([3]; mouse, in vivo) | Smooth muscle contraction Trachea (guinea pig trachea) | Smooth muscle contraction relative efficiency Uterus (rat uterine horn) | Smooth muscle contraction relative efficiency Ileum (guinea pig ileum) | inhibition at 100 µg/mL (human blood platelets) [%] | ED50 [2] [mg/kg] | abortive potency (in words) ([2]; mice, compared to PGF2α, listed as 9 α, 11 α, 15(ksi)-trihydroxy-16(S)-amino-5-cis, 13-trans-prostadienoic acid met)
CCCC[C@@H](N)C(O)/C=C/[C@@H]1[C@@H](C/C=C\CCCC(=O)OC)[C@@H](O)C[C@H]1O (single isomer, unassigned) | O | – | – | – | O | 0.05 | 0.02 | – | – | –
CCCCC[C@H](O)/C=C/[C@@H]1[C@@H](C/C=C\CCCC(=O)OC)[C@@H](O)C[C@H]1O [PGF2α methyl ester, reference compound] | s | – | exhibit also a laxative effect | – | + | 1.25 | 0.78 | 56 | 6 | –
CCCCC[C@H](O)/C=C/[C@@H]1[C@@H](C/C=C\CCCC(=O)O)[C@@H](O)C[C@H]1O [PGF2α, 9α, 11α, 15(S)-trihydroxy-5-cis, 13-trans-prostadienoic acid, reference compound] | s | – | – | exhibit also a laxative effect | + | 1.00 | 1.00 | 82 | 20 | –

Further lines, with some results ahead:

15-Hydroxy-prostaglandin-dehydrogenase (substrate or no substrate) [1] | diarrhea ([3]; even at the tenfold of the abortive dose) | laxative effect ([3]; at abortive doses) | laxative effect ([3]; mouse, in vivo) | Structure (SMILES) | Smooth muscle contraction Trachea (guinea pig trachea) | Smooth muscle contraction relative efficiency Uterus (rat uterine horn) | Smooth muscle contraction relative efficiency Ileum (guinea pig ileum) | inhibition at 100 µg/mL (human blood platelets) [%] | ED50 [2] [mg/kg] | abortive potency (in words) ([2]; mice, compared to PGF2α, listed as 9 α, 11 α, 15(ksi)-trihydroxy-16(S)-amino-5-cis, 13-trans-prostadienoic acid met)
O | – | – | – | CCCC[C@@H](N)C(O)/C=C/[C@@H]1[C@@H](C/C=C\CCCC(=O)O)[C@@H](O)C[C@H]1O (single isomer, unassigned) | O | 0.13 | 0.02 | – | – | –
O | – | – | – | CCCC[C@H](N)C(O)/C=C/[C@@H]1[C@@H](C/C=C\CCCC(=O)O)[C@@H](O)C[C@H]1O (single isomer, unassigned) | – | 0.83 | 0.11 | 75 | – | –
O | no diarrhea is observed | – | – | CCCC[C@H](N)C(O)/C=C/[C@@H]1[C@@H](C/C=C\CCCC(=O)OC)[C@@H](O)C[C@H]1O (single isomer, unassigned) | O | 0.99 | 0.17 | 52 | 0.1 | exceedingly high abortive effect; also recorded: the most active agent
